Patent US7329646B2, “Derivatives of the insulinotropic peptide exendin-4 and methods of production thereof” (Shanghai Huayi Bio-Lab Co., Ltd., priority 2001, dated 2008)

Assays:
Assay type in all cases: in vivo
[1] = test system: non-diabetic C57 BL/6J mice; test: Blood glucose after glucose challenge in non-diabetic C57 BL/6J mice (Example 3); conditions: overnight-fasted mice; 20% glucose (200 μl) i.p. with simultaneous s.c. peptide: GLP-1 1 μg, exendin-4 0.2 μg, derivative 0.2 μg; 0, 30, 60, 120 minutes; FIG. 2
Procedure: Experiments were conducted to determine the effect on the blood glucose levels of non-diabetic C57 BL/6J mice of the exendin-4 (Leu14, Lys20, Arg40) peptide derivative relative to GLP-1 and the wild-type exendin-4 peptide. Overnight-fasted C57 BL/6J mice weighing 20 g were injected with a 20% glucose solution (200 μl) intra-peritoneally and simultaneously subcutaneously injected with either a saline control, GLP-1 (1 μg), exendin-4 (0.2 μg), or exendin-4 (Leu14, Lys20, Arg40) (0.2 μg). Blood glucose levels were determined using standard glucose determination kits at 0, 30, 60, and 120 minutes post-injection.

db/db diabetic mice = test: Blood glucose after glucose challenge in db/db diabetic mice (Example 4); conditions: 2-hour-fasted db/db mice; 20% glucose (200 μl) i.p. with simultaneous s.c. GLP-1 4 μg, E4m 0.2 μg or Humalog 4 μg; 0-180 minutes; FIG. 3
Procedure: In order to extend the experimental results obtained in Example 3 with non-diabetic mice, experiments were also conducted to determine the effect on blood glucose levels of db/db diabetic mice of the exendin-4 (Leu14, Lys20, Arg40) peptide derivative relative to GLP-1 and Rapid Insulin.
Specifically, 2-hour-fasted db/db mice weighing 50 g were injected with a 20% glucose solution (200 μl) intra-peritoneally and simultaneously subcutaneously injected with either a saline control, GLP-1 (4 μg), exendin-4 (Leu14, Lys20, Arg40) (“E4m”)(0.2 μg), or the commercially available insulin, Humalog® (Eli Lilly and Company) (4 μg). Blood glucose levels were determined using standard glucose determination kits at 0, 30, 60, 120, and 180 minutes post-injection, and hypoglycemia (%) was calculated relative to the baseline (t=0) blood glucose level of animals receiving saline control.

C57 BL/6J mice = test: Long-term blood glucose buffering with second glucose challenge at 240 minutes in C57 BL/6J mice (Example 5); conditions: FIG. 4; for effect on rise in blood glucose levels after the initial glucose injection: overnight-fasted mice, 20% glucose (200 μl) i.p. with simultaneous s.c. GLP-1 1 μg or E4m 0.2 μg; for activity on blood glucose after second glucose challenge at 240 minutes after the first injection: peptide given only at first injection (GLP-1 1 μg, E4m 0.2 μg), glucose measured at 240, 270, 300 minutes
Procedure: In order to determine the long-term ability of the exendin-4 derivative exendin-4 (Leu14, Lys20, Arg40) to buffer blood glucose levels, experiments were performed in which blood glucose levels in the presence of this exendin-4 derivative were determined at various times after an initial glucose challenge at 0 minutes and then a second glucose challenge at 240 minutes.
Specifically, overnight-fasted C57 BL/6J mice weighing 20 g were injected with a 20% glucose solution (200 μl) intra-peritoneally and simultaneously subcutaneously injected with either a saline control, GLP-1 (1 μg), or exendin-4 (Leu14, Lys20, Arg40) (0.2 μg). Then, at 240 minutes after the initial injection a second injection of 20% glucose solution (200 μl) intra-peritoneally was performed. Blood glucose levels were determined using standard glucose determination kits at 0, 30, 60, 240, 270, and 300 minutes after the first injection.

NOD mice [2] = test: Blood glucose after glucose challenge in NOD mice (Example 6); conditions: overnight-fasted NOD mice
Procedure: Experiments to determine the effects on blood glucose levels of the exendin-4 derivative exendin-4 (Lys20, Arg40) were conducted in NOD mice provided by the Shanghai Laboratory Animal Center of Chinese Academy of Sciences. 0.9% sodium chloride solution and exendin-4 (Lys20, Arg40) were used in the assay. Plasma glucose testing kits were purchased from Shanghai Institute of Biological Products Ministry of Health.
Overnight-fasted NOD mice were divided into two groups. Mice in the first group were abdominally injected with 200 μl of a solution containing 40% glucose and 1 μg of exendin-4 (Lys20, Arg40). Mice in the second (control) group […] with a glucose solution.
30 μl of blood sample was taken from retro-orbital zeinous sinus immediately using a scaled capillary which was treated beforehand with heparin, placed into 300 μl of normal saline and mixed with the saline. Erythrocytes were removed by centrifugation at 3,000 rpm, while blood serum was kept for glucose determination. Different blood samples were taken as described above at 30 min, 60 min and 120 min, and blood serum was separated. Glucose concentrations of three plasma samples were determined according to the method described in the testing kits, and the decreasing effect of exendin-4 (Lys20, Arg40) on blood glucose concentration was determined.

NOD mice [3] = test: Insulin secretion in NOD mice, insulin radioimmunoassay (Example 7); conditions: abdominal injection of 5 μg in 200 μl saline, 5, 10, 20, 30 min, data not shown
Procedure: In order to determine whether the ability of the exendin-4 derivative exendin-4 (Lys20, Arg40) to decrease blood glucose in NOD mice is an insulinotropic effect, experiments were conducted to measure the effect of administration of this compound on insulin levels. In these experiments, NOD mice were provided by Shanghai Laboratory Animal Center of Chinese Academy of Sciences. 40% glucose solution, 0.9% sodium chloride solution, and exendin-4 (Lys20, Arg40) were used in the experiment. Insulin radioimmunoassay kits were purchased from Shanghai Institute of Biological Products Ministry of Health.
NOD mice were divided into two groups. 50 μl of blood sample was taken from the plexus venosus of the eye using a scaled capillary, the inner wall of which was rinsed with 1 mg/mL heparin and was air-dried beforehand. Mice in the two groups were abdominally injected with either 200 μl normal saline alone, or with a similar amount of saline containing 5 μg exendin-4 (Lys20, Arg40), respectively at t=0. Different blood samples were taken as described above at 5 min, 10 min, 20 min and 30 min. […] Insulin concentrations of different samples were determined by following the methods described in the radioimmunoassay kit, and the stimulating effect of exendin-4 (Lys20, Arg40) on insulin secretion was determined.

Healthy C57 BL mice = test: C-peptide secretion in healthy C57 BL mice, C-peptide radioimmunoassay (Example 8); conditions: abdominal injection of 5 μg in 200 μl saline, data not shown
Procedure: In order to further investigate the insulinotropic properties of the exendin-4 derivative exendin-4 (Lys20, Arg40), experiments were conducted to measure the effect of administration of this compound on the production of C-peptide, which, as discussed previously, is produced in equal amounts as insulin by the cleavage of proinsulin. Healthy C57 BL mice were provided by Shanghai Laboratory Animal Center of Chinese Academy of Sciences. 40% glucose solution, 0.9% sodium chloride solution and exendin-4 (Lys20, Arg40) were used in the experiments. Insulin radioimmunoassay kits and C-peptide radioimmunoassay kits were purchased from Shanghai Institute of Biological Products Ministry of Health.
Healthy C57 BL mice were divided into two groups. 50 μl of blood sample was taken from plexus venosus of the eye using a scaled capillary, the inner wall of which was rinsed with 1 mg/mL heparin and was air-dried beforehand. Mice in two groups were abdominally injected with 200 μl normal saline alone, or with a similar amount of saline containing 5 μg of exendin-4 (Lys20, Arg40), respectively at t=0. […] The C-peptide concentration in each sample was determined by following the method described by the radioimmunoassay kit, and the stimulating effect of exendin-4 (Lys20, Arg40) on C-peptide secretion was determined.

| Substance | effect on blood glucose levels after glucose challenge [1] | effect on blood glucose levels after glucose challenge (db/db diabetic mice) | effect on rise in blood glucose levels after the initial glucose injection (C57 BL/6J mice) | activity on blood glucose after second glucose challenge at 240 minutes after the first injection (C57 BL/6J mice) | time after administration up to which dramatic fluctuations in glucose concentration are prevented (NOD mice [2]; 200 μl 40% glucose with 1 μg peptide, abdominal injection) | blood glucose concentration after glucose challenge (NOD mice [2]; abdominal injection of 200 μl 40% glucose with 1 μg peptide, 30, 60, 120 min, data not shown) | stimulating effect on insulin secretion (NOD mice [3]) | stimulating effect on C-peptide secretion (Healthy C57 BL mice) |
| --- | --- | --- | --- | --- | --- | --- | --- | --- |
| Glucagon-like peptide-1 (HAEGTFTSDVSSYLEGQAAKEFIAWLVKGR; listed as Homo sapiens) [GLP-1, peptide hormone secreted by intestinal cells that enhances insulin secretion, reference compound] | acted to buffer changes in blood glucose levels | resulted in the buffering of changes in blood glucose levels | drastically reduced | GLP-1 activity is essentially abolished |  |  |  |  |
| Humalog®: commercially available insulin, Humalog® (Eli Lilly and Company) |  | resulted in the buffering of changes in blood glucose levels |  |  |  |  |  |  |
| exendin-4 (Leu14, Lys20, Arg40) | produced a response profile virtually identical to that seen with the wild-type exendin-4 sequence | resulted in the buffering of changes in blood glucose levels | essentially eliminated | activity at times of 240 or more minutes after first injection is preserved |  |  |  |  |
| exendin-4 (Lys20, Arg40) |  |  |  |  | at least 2 hours | never showed a notable increase in blood glucose | significantly stimulates insulin secretion | significantly stimulates the secretion of C-peptide relative to the control |
| exendin-4 [wild-type exendin-4] | acted to buffer changes in blood glucose levels |  |  |  |  |  |  |  |
